Measurements taken from patent publication US9920053B2, “N-(hetero)aryl-substituted heteroyclic derivatives useful for the treatment of diseases or conditions related to the central nervous system” (CHRONOS THERAPEUTICS LIMITED, priority 2014, dated 2018).

Assays:
[1] = target: human dopamine transporter (DAT) (Homo sapiens (Human), UniProt Q01959); experiment: Scintillation Proximity Assay (SPA) for human DAT binding ([3H]WIN-35,428); details: recombinant human DAT, CHO
Text: (§1) Affinity is expressed in terms of inhibition constant (Ki) of the compounds of the invention for DAT, NET and SERT, and it is typically calculated from the IC50 values obtained in competition experiments using Cheng and Prusoff equation (Cheng and Prusoff, Biochem. Pharmacol. 22:3099, 1973). In the context of the present invention pKi values (corresponding to the antilogarithm of Ki) are used instead of Ki; pKi are only estimated to be accurate to about 0.3 log unit.
(§2) Chinese Hamster Ovary (CHO) cells stably expressing either human DAT (hDAT-CHO) or human NET (hNET-CHO) or human SERT (hSERT-CHO) are used for the membrane preparations for radioligand binding assays using Scintillation proximity Assay (SPA) technique. Each cell line is cultured independently in F-12K Nutrient Mixture containing 10% of Fetal Bovine Serum (FBS) supplemented with 450 μg/ml G-418. When cells are at 70-80% of confluence 3 mM Na Butyrate was added to the cell culture medium. After 24 h of incubation, the culture medium was removed and the cells detached with Versene (DAT) or by scraping (NET and SERT). Cell suspension is centrifuged at 41,000 g for 10 minutes at 4° C. The resultant pellets are re-suspended in 15 volumes of Ice-cold buffer (20 mM HEPES, 145 mM NaCl, 5 mM KCl, pH7.3), homogenized using an Ultra Turrax homogeniser and centrifuged as before. The resultant membrane pellets are re-suspended in up to 15 volume of ice-cold buffer, incubated for 20 minutes at 37° C and centrifuged as before at 41,000 g. The final membrane pellets are re-suspended into 5-10 volumes of ice-cold buffer, dispensed into 0.5 ml aliquots and stored at −80° C. until use. Protein concentration for each preparation is determined using Bio-Rad Protein Assay Kit.
(§3) The affinity of the compounds of the invention to the human DAT or NET or SERT transporters is assessed by using the [^3H]WIN-35,428 or [^3H]nisoxetine or [^3H]citalopram binding assays in recombinant human DAT, NET and SERT membranes with the SPA technology. The final assay volume is 50 μL in 384 well plates.
(§4) Briefly, 0.5 μL of test compound in neat DMSO or 0.5 μL of DMSO for total binding (TB) or 0.5 μL of indatraline 1 mM (10 μM final concentration) for non specific binding (NSB) are added to the assay plate. 50 μL of the SPA mixture is added to each well, containing: 30 μg/mL or 10 μg/mL or 25 μg/mL DAT, NET, SERT membranes, respectively; 5 nM [^3H]WIN-35,428 or 5 nM [^3H]nisoxetine or 1 nM [^3H]citalopram, for DAT, NET, SERT assay, respectively; 2.5 mg/mL or 1 mg/mL or 4 mg/mL WGA-PVT SPA beads (PerkinElmer RPNQ0001, for DAT, NET, SERT assay, respectively. All components are added to Assay Buffer (20 mM HEPES pH 7.4, 145 mM NaCl, 5 mM KCl, 0.01% Pluronic F-127). 0.02% BSA was used for DAT binding only. Plates are sealed with Topseal A and centrifuged 1 min, 800 rpm. Plates are loaded into a 1450 Microbeta TriLux (Perkin-Elmer) plate reader and the radioactivity counted after at least 4 hrs or overnight incubation at room temperature. Curve fitting and IC50 estimations are performed using a four parameter model in XLfit (IDBS, Guilford, UK) for Microdoft Excel (Microsoft, Redmond, Wash.).
The potency of the compounds of the invention in blocking the DAT function is measured using an uptake assay in a recombinant CHO cell line expressing human DAT (hDAT-CHO). Potency is measured in terms of pIC50 by testing the compounds of invention for the inhibition of [^3H]-dopamine uptake in DAT-CHO cells using a SPA technology in 384 well format.
Briefly, on the days of the experiment hDAT-CHO cells are detached using Versene and added (75,000 cells/mL) to the SPA Mixture, which contains the following components in Assay Buffer (20 mM HEPES, 145 mM NaCl, 5 mM KCl, 2 mM CaCl2, 1 mM MgCl2 and 1 g/L glucose, pH 7.3): 0.02% w/v of Pluronic F127, 2 mg/mL SPA Imaging beads (RPNQ0260, PerkinElmer), 10 μM pargyline and 80 nM of [^3H]-dopamine. […]

[2] = target: human norepinephrine transporter (NET) (Homo sapiens (Human), UniProt P23975); experiment: Scintillation Proximity Assay (SPA) for human NET binding ([3H]nisoxetine); details: recombinant human NET, CHO membranes
Sequence of human norepinephrine transporter (NET) (P23975 whole entry): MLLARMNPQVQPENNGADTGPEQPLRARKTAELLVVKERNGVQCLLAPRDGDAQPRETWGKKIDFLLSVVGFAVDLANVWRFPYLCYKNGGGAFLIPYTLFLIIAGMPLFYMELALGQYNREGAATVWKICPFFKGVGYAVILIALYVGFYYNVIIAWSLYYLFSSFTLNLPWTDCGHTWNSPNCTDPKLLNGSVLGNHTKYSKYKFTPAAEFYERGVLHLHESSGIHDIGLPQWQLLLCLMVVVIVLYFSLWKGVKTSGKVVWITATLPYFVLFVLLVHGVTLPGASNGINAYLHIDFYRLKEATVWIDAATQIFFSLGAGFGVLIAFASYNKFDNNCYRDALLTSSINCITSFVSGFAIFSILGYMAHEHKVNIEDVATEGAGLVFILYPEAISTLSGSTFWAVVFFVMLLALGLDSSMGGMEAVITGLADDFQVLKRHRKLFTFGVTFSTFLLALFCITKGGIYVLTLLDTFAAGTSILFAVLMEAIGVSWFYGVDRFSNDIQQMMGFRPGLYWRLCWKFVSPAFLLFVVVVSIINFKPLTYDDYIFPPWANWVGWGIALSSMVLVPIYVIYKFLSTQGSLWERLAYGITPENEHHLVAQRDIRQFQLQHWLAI
Text: as §1, §2, §3, §4

[3] = target: human serotonin transporter (SERT) (Homo sapiens (Human), UniProt P31645); experiment: Scintillation Proximity Assay (SPA) for human SERT binding ([3H]citalopram); details: recombinant human SERT, CHO membranes
Sequence of human serotonin transporter (SERT) (P31645 whole entry): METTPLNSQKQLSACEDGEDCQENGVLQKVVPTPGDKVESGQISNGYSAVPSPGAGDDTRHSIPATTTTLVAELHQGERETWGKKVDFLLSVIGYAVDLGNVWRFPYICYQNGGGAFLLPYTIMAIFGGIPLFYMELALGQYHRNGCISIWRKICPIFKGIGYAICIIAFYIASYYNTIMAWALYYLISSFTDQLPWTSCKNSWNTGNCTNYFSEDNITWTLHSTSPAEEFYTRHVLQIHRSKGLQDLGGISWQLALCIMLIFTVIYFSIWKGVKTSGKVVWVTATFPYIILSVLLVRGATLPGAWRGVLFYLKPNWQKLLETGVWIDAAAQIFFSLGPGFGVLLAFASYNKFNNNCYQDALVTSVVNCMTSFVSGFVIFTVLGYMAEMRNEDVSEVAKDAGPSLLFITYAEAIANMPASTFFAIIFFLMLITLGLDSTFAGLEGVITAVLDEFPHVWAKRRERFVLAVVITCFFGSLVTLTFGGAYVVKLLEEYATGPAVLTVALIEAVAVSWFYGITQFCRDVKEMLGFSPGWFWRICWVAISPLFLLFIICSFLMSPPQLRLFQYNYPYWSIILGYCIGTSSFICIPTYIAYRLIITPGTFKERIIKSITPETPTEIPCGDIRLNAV
Text: as §1, §2, §3, §4

[4] = target: human ERG potassium channel (hERG) (Homo sapiens (Human), UniProt Q12809); experiment: hERG channel tail current recording using Rapid ICE automated patch-clamp; format: cell-based; details: HEK293 cells stably transfected with hERG
Sequence of human ERG potassium channel (hERG) (Q12809 whole entry): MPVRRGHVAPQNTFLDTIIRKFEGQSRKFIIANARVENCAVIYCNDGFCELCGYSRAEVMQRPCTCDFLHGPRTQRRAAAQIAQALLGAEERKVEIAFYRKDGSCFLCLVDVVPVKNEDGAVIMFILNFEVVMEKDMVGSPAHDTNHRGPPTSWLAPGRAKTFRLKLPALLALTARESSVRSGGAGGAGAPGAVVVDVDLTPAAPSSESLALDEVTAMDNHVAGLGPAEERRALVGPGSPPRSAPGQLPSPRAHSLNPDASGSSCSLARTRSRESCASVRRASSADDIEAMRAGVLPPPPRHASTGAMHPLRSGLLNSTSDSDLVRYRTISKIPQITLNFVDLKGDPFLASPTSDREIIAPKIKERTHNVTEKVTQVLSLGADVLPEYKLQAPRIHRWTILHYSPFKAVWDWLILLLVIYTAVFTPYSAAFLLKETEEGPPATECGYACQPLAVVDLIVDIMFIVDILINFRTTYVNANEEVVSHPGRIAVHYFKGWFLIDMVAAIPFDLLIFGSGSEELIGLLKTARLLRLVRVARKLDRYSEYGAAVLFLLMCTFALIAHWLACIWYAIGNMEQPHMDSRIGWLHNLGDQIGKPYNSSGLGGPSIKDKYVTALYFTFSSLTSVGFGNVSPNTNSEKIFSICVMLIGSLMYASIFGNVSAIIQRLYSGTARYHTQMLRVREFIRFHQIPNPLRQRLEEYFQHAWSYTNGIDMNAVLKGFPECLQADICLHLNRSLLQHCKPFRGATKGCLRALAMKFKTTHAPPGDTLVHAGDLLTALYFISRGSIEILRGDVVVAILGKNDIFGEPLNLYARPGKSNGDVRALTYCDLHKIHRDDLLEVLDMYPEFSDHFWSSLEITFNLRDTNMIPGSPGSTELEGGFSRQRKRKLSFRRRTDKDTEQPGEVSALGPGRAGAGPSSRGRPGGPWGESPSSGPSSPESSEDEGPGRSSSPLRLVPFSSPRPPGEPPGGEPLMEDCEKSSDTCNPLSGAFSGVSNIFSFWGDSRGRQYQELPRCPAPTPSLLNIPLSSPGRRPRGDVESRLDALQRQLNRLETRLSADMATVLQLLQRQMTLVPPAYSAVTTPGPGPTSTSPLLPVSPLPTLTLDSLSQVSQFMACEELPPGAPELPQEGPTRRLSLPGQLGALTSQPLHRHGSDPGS
Experimental: The potency of the compounds of the invention in inhibiting human ERG potassium channel (hERG) tail current is assessed in a recombinant HEK293 cell line stably transfected with hERG cDNA using Rapid ICE™ (Rapid Ion Channel Electrophysiology) assay. Rapid ICE™ is an automated patch-clamp assay utilizing the PatchXpress 7000A system (Molecular Devices Corporation) or the QPatch HTX system (Sophion Bioscience A/S).
Briefly cells are cultivated for 24 to 72 hours before recordings in minimum essential medium supplemented with 10% FBS, 1% non-essential amino acids, 1% sodium pyruvate, 2 mM L-glutamine. The day of the experiment cells are detached with TrypLE and prepared to be loaded on the instrument. For PatchXpress cells are finally resuspended in 150 μl of Extracellular Buffer whereas for QPatch cells are resuspended in 7 ml Serum-Free Media containing 25 mM Hepes and Soybean trypsin inhibitor and immediately placed in the cell storage tank of the machine. The composition of the Extracellular Buffer is (mM): NaCl 137; KCl 4; CaCl2 1.8; MgCl2 1.0; D-glucose 10; N 2 hydroxyethylpiperazine-N′-2-ethanesulfonic acid (HEPES) 10; pH 7.4 with 1 M NaOH. The composition of the pipette solution is (mM): KCl 130; MgCl2 1.0; Ethylene glycol-bis(β-aminoethyl ether)-N,N,N′,N′-tetraacetic acid (EGTA) 5; MgATP 5; HEPES 10; pH 7.2 with 1 M KOH. The voltage protocol includes the following steps: step from −80 mV to −50 mV for 200 ms, +20 mV for 4.8 s, step to −50 mV for 5 s then step to the holding potential of −80 mV. Compounds of the invention are dissolved in DMSO and diluted in Extracellular Buffer to achieve final test concentrations (0.1, 1 and 10 μM) in 0.1% DMSO. The voltage protocol is run and recorded continuously during the experiment. The vehicle, corresponding to 0.1% DMSO in Extracellular Buffer, is then applied for 3 min followed by the test substance in triplicate. The standard combined exposure time is 5 min. The average of tail current amplitude values recorded from 4 sequential voltage pulses is used to calculate for each cell the effect of the test substance by calculating the residual current (% control) compared with vehicle pre-treatment. Data are reported as % inhibition for each concentration tested and IC50 values are estimated using DataXpress or QPatch software. At least two cells are tested, more if results diverge.

Sequence of human dopamine transporter (DAT) (Q01959 whole entry): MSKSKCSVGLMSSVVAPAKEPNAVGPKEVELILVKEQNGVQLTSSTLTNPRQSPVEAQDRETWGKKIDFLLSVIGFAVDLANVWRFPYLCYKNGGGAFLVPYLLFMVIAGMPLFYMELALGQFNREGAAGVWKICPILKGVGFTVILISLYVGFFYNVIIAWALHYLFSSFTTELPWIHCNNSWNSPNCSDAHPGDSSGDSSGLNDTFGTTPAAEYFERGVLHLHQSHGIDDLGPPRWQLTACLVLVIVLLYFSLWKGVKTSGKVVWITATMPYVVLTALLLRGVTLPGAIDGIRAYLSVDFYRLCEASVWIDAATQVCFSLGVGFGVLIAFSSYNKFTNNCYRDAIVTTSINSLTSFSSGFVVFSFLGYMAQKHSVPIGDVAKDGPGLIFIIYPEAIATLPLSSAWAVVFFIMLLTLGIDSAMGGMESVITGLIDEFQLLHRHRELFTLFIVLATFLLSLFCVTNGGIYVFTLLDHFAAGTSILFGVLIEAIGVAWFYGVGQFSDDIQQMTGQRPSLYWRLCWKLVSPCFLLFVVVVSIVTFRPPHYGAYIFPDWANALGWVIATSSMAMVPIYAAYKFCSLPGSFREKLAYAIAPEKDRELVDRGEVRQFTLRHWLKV

Row | Compound | pIC50 DAT [1] | pIC50 NET [2] | IC50 [3] [µM] | pIC50 hERG [4] | pIC50 SERT [3]
1 | CN(C)CC1(O)CCN(c2nc(Oc3cccc(F)c3)cc(C(F)(F)F)n2)CC1 [Example 1, 4-[(dimethylamino)methyl]-1-[4-(3-fluorophenoxy)-6(trifluoromethyl)pyrimidin-2-yl]piperidin-4-ol] | 8.46 | 7.00 | 13.5 | 6.6 | –
2 | CC(C)(C)NCC1(O)CCN(c2nc(Oc3cccc(F)c3)cc(C(F)(F)F)n2)CC1 [Example 9, 4-[(tert-butylamino)methyl]-1-[4-(3-fluorophenoxy)-6-(trifluoromethyl)pyrimidin-2-yl]piperidin-4-ol] | 7.91 | 6.02 | 11.2 | – | –
3 | O=C1CCCN1CC1(O)CCN(c2nc(Oc3cccc(F)c3)cc(C(F)(F)F)n2)CC1 [Example 10, 1-({1-[4-(3-fluorophenoxy)-6-(trifluoromethyl)pyrimidin-2-yl]-4-hydroxypiperidin-4-yl}methyl)pyrrolidin-2-one] | 7.18 | 5.33 | > 100 | – | –
4 | Cl.NCC1(O)CCN(c2nc(Oc3cccc(F)c3)cc(C(F)(F)F)n2)CC1 [Example 12, 4-(aminomethyl)-1-[4-(3-fluorophenoxy)-6-(trifluoromethyl)pyrimidin-2-yl]piperidin-4-ol hydrochloride] | 8.56 | 6.84 | 8.71 | – | –
5 | NCC1(O)CCN(c2cc(F)cc(Oc3cccc(F)c3)c2)CC1 [Example 14, 4-(aminomethyl)-1-[3-fluoro-5-(3-fluorophenoxy)phenyl]piperidin-4-ol] | 8.82 | 6.93 | 0.603 | – | –
6 | NCC1(O)CCN(c2cc(F)cc(Oc3cccc(F)c3)c2F)CC1 [Example 15, 4-(aminomethyl)-1-[2,5-difluoro-3-(3-fluorophenoxy)phenyl]piperidin-4-ol] | 9.04 | 7.24 | 0.661 | – | –
7 | NCC1(O)CCN(c2cccc(Oc3ccccc3)c2F)CC1 [Example 16, 4-(aminomethyl)-1-(2-fluoro-3-phenoxyphenyl)piperidin-4-ol] | 7.81 | 6.01 | 1.45 | – | –
8 | NCC1(O)CCN(c2cccc(Oc3cccc(F)c3)c2F)CC1 [Example 17, 4-(aminomethyl)-1-[2-fluoro-3-(3-fluorophenoxy)phenyl]piperidin-4-ol] | 8.17 | 6.49 | 2.09 | – | –
9 | NC1(CO)CCN(c2nc(Oc3cccc(F)c3)cc(C(F)(F)F)n2)CC1 [Example 20, {4-amino-1-[4-(3-fluorophenoxy)-6-(trifluoromethyl)pyrimidin-2-yl]piperidin-4-yl}methanol] | 8.39 | 6.50 | 5.13 | – | –
10 | O=C(CC1CC1)NCC1(O)CCN(c2nc(Oc3cccc(F)c3)cc(C(F)(F)F)n2)CC1 [Example 22, 2-cyclopropyl-N-({1-[4-(3-fluorophenoxy)-6-(trifluoromethyl)pyrimidin-2-yl]-4-hydroxypiperidin-4-yl}methyl)acetamide] | 7.58 | 5.76 | > 100 | – | –
11 | CC(C)OCC(=O)NCC1(O)CCN(c2nc(Oc3cccc(F)c3)cc(C(F)(F)F)n2)CC1 [Example 23, N-({1-[4-(3-fluorophenoxy)-6-(trifluoromethyl)pyrimidin-2-yl]-4-hydroxypiperidin-4-yl}methyl)-2-(propan-2-yloxy)acetamide] | 7.75 | 5.55 | > 100 | – | –
12 | CC(=O)NCC1(O)CCN(c2nc(Oc3cccc(F)c3)cc(C(F)(F)F)n2)CC1 [Example 24, N-({1-[4-(3-fluorophenoxy)-6-(trifluoromethyl)pyrimidin-2-yl]-4-hydroxypiperidin-4-yl}methyl)acetamide] | 7.42 | 5.04 | > 100 | – | –
13 | OC1(CNC2CC2)CCN(c2nc(Oc3cccc(F)c3)cc(C(F)(F)F)n2)C1 (stereo not shown) [Example 30, 3-[(cyclopropylamino)methyl]-1-[4-(3-fluorophenoxy)-6-(trifluoromethyl)pyrimidin-2-yl]pyrrolidin-3-ol] | 8.72 | 6.78 | 34.7 | – | –
14 | CC(C)C(=O)NCC1(O)CCN(c2nc(Oc3cccc(F)c3)cc(C(F)(F)F)n2)C1 (stereo not shown) [Example 34, N-({1-[4-(3-fluorophenoxy)-6-(trifluoromethyl)pyrimidin-2-yl]-3-hydroxypyrrolidin-3-yl}methyl)-2-methylpropanamide] | 6.50 | 4.72 | > 100 | – | –
15 | O=C(NCC1(O)CCN(c2nc(Oc3cccc(F)c3)cc(C(F)(F)F)n2)C1)C1CNC1 (stereo not shown) [Example 35, N-({1-[4-(3-fluorophenoxy)-6-(trifluoromethyl)pyrimidin-2-yl]-3-hydroxypyrrolidin-3-yl}methyl)azetidine-3-carboxamide] | 8.25 | 6.56 | 33.1 | – | –
16 | (3R or 3S)-3-[(cyclopropylamino)methyl]-1-[4-(3-fluorophenoxy)-6-(trifluoromethyl)pyrimidin-2-yl]pyrrolidin-3-ol [Example 32] | 8.47 | 6.63 | – | – | 4.36
